# Assay results: US20230389548A1, “MIXTURES OF PYRIMIDINES AS HERBICIDAL COMPOSITIONS” (SYNGENTA CROP PROTECTION AG, priority 2020, published 2023)
# Legend:
# Assay in all cases: Post-emergence glasshouse spray test, visual percentage phytotoxicity after 13 days
# Format in all cases: in vivo
# Lolium perenne (LOLPE) = conditions: for LOLPE percentage phytotoxicity: B1
# Experimental: (§1) Seeds of Setaria faberi (SETFA), Echinochloa crus-galli (ECHCG), Digitaria sanguinalis (DIGSA), Lolium perenne (LOLPE), Alopecurus myosuroides (ALOMY), Chenopodium album (CHEAL), Ipomoea hederacea (IPOHE), Stellaria media (STEME), Abutilon threophrasti (ABUTH), Amaranthus retroflexus (AMARE) were sown in standard sterilised soil in pots. After cultivation for 8 days under controlled conditions in a glasshouse (at 24/19° C., day/night; 16 hours light; no humidity control), the plants were sprayed at 500 l/Ha with an aqueous spray solution derived from the formulation of the technical active ingredients in a small amount of acetone and a solvent and emulsifier mixture referred to as IF50 (11.12% Emulsogen EL360™+44.44% N-methylpyrrolidone+44.44% Dowanol DPM glycol ether), to create a 50 g/l solution which was then diluted using 0.2% Genapol XO80 (CAS Number: 9043-30-5) as diluent to give the desired final dose of test compound.
# (§2) Where active ingredients were applied as mixtures, aqueous spray solutions were prepared as above, containing both active ingredients.
# (§3) The test plants were then grown under controlled conditions in a glasshouse (at 24/18° C., day/night; 15 hours light; 50% humidity) and watered twice daily. After 13 days, the test was evaluated visually for percentage phytotoxicity to the plants (where 100=total damage to plant; 0=no damage to plant; and NC=not captured) when compared to control untreated plants. Two to four replicates were applied for each treatment in a randomised block test design.
# (§4) 22., E=X+Y−(X*Y/100), where
# (§5) X=average percent phytotoxicity of herbicide A when applied at a certain rate Y=average percent phytotoxicity using herbicide B when applied at a certain rate E=the expected effect of the mixture of herbicides A and B as calculated from the Colby formula.
# [1] = system: Ipomoea hederacea (IPOHE); conditions: for IPOHE percentage phytotoxicity: B1; for Observed phytotoxicity IPOHE: B2.4.5
# Experimental: as §1, §2, §3, §4, §5
# [2] = system: Chenopodium album (CHEAL); conditions: for CHEAL percentage phytotoxicity: B1
# Experimental: as §1, §2, §3, §4, §5
# Stellaria media (STEME) = conditions: B1
# Experimental: as §1, §2, §3, §4, §5
# [3] = system: Alopecurus myosuroides (ALOMY); conditions: for ALOMY percentage phytotoxicity: B1
# Experimental: as §1, §2, §3, §4, §5
# [4] = system: Digitaria sanguinalis (DIGSA); conditions: for DIGSA percentage phytotoxicity: B1
# Experimental: as §1, §2, §3, §4, §5
# [5] = system: Amaranthus retroflexus (AMARE); conditions: for AMARE percentage phytotoxicity: B1
# Experimental: as §1, §2, §3, §4, §5
# Setaria faberi (SETFA) = conditions: for SETFA percentage phytotoxicity: B1
# Experimental: as §1, §2, §3, §4, §5
# [6] = system: Abutilon threophrasti (ABUTH); conditions: for ABUTH percentage phytotoxicity: B1
# Experimental: as §1, §2, §3, §4, §5
smiles,measurement,setting,value
CS(=O)(=O)c1ccc(C(=O)C2C(=O)CCCC2=O)c(Cl)c1OCCC1OCCO1 [B-II],LOLPE percentage phytotoxicity,Lolium perenne (LOLPE); 0.625 g/ha post-emergence,0%
same,LOLPE percentage phytotoxicity,Lolium perenne (LOLPE); 1.25 g/ha post-emergence,0%
same,LOLPE percentage phytotoxicity,Lolium perenne (LOLPE); 2.5 g/ha post-emergence,0%
same,LOLPE percentage phytotoxicity,Lolium perenne (LOLPE); 5 g/ha post-emergence,0%
same,LOLPE percentage phytotoxicity,Lolium perenne (LOLPE); 10 g/ha post-emergence,0%
same,Observed phytotoxicity LOLPE,"Lolium perenne (LOLPE); B2.4.3, 5 g/ha post-emergence",0%
same,Observed phytotoxicity LOLPE,"Lolium perenne (LOLPE); B2.4.3, 10 g/ha post-emergence",0%
same,IPOHE percentage phytotoxicity,[1]; 0.625 g/ha post-emergence,3%
same,IPOHE percentage phytotoxicity,[1]; 1.25 g/ha post-emergence,10%
same,IPOHE percentage phytotoxicity,[1]; 2.5 g/ha post-emergence,23%
same,IPOHE percentage phytotoxicity,[1]; 5 g/ha post-emergence,38%
same,IPOHE percentage phytotoxicity,[1]; 10 g/ha post-emergence,48%
same,Observed phytotoxicity IPOHE,[1]; 2.5 g/ha post-emergence,23%
same,Observed phytotoxicity IPOHE,[1]; 10 g/ha post-emergence,48%
same,CHEAL percentage phytotoxicity,[2]; 0.625 g/ha post-emergence,0%
same,CHEAL percentage phytotoxicity,[2]; 1.25 g/ha post-emergence,0%
same,CHEAL percentage phytotoxicity,[2]; 2.5 g/ha post-emergence,38%
same,CHEAL percentage phytotoxicity,[2]; 5 g/ha post-emergence,53%
same,CHEAL percentage phytotoxicity,[2]; 10 g/ha post-emergence,65%
same,Observed phytotoxicity CHEAL,"[2]; B2.4.7, 1.25 g/ha post-emergence",0%
same,STEME percentage phytotoxicity,Stellaria media (STEME); 0.625 g/ha post-emergence,0%
same,STEME percentage phytotoxicity,Stellaria media (STEME); 1.25 g/ha post-emergence,13%
same,STEME percentage phytotoxicity,Stellaria media (STEME); 2.5 g/ha post-emergence,45%
same,STEME percentage phytotoxicity,Stellaria media (STEME); 5 g/ha post-emergence,35%
same,STEME percentage phytotoxicity,Stellaria media (STEME); 10 g/ha post-emergence,38%
same,ALOMY percentage phytotoxicity,[3]; 0.625 g/ha post-emergence,0%
same,ALOMY percentage phytotoxicity,[3]; 1.25 g/ha post-emergence,0%
same,ALOMY percentage phytotoxicity,[3]; 2.5 g/ha post-emergence,0%
same,ALOMY percentage phytotoxicity,[3]; 5 g/ha post-emergence,0%
same,ALOMY percentage phytotoxicity,[3]; 10 g/ha post-emergence,0%
same,Observed phytotoxicity ALOMY,"[3]; B2.4.4, 10 g/ha post-emergence",0%
same,DIGSA percentage phytotoxicity,[4]; 0.625 g/ha post-emergence,0%
same,DIGSA percentage phytotoxicity,[4]; 1.25 g/ha post-emergence,0%
same,DIGSA percentage phytotoxicity,[4]; 2.5 g/ha post-emergence,0%
same,DIGSA percentage phytotoxicity,[4]; 5 g/ha post-emergence,0%
same,DIGSA percentage phytotoxicity,[4]; 10 g/ha post-emergence,0%
same,Observed phytotoxicity DIGSA,"[4]; B2.4.2, 2.5 g/ha post-emergence",0%
same,Observed phytotoxicity DIGSA,"[4]; B2.4.2, 5 g/ha post-emergence",0%
same,Observed phytotoxicity DIGSA,"[4]; B2.4.2, 10 g/ha post-emergence",0%
same,AMARE percentage phytotoxicity,[5]; 0.625 g/ha post-emergence,0%
same,AMARE percentage phytotoxicity,[5]; 1.25 g/ha post-emergence,5%
same,AMARE percentage phytotoxicity,[5]; 2.5 g/ha post-emergence,10%
same,AMARE percentage phytotoxicity,[5]; 5 g/ha post-emergence,28%
same,AMARE percentage phytotoxicity,[5]; 10 g/ha post-emergence,48%
same,Observed phytotoxicity AMARE,"[5]; B2.4.8, 2.5 g/ha post-emergence",10%
same,SETFA percentage phytotoxicity,Setaria faberi (SETFA); 0.625 g/ha post-emergence,0%
same,SETFA percentage phytotoxicity,Setaria faberi (SETFA); 1.25 g/ha post-emergence,0%
same,SETFA percentage phytotoxicity,Setaria faberi (SETFA); 2.5 g/ha post-emergence,0%
same,SETFA percentage phytotoxicity,Setaria faberi (SETFA); 5 g/ha post-emergence,0%
same,SETFA percentage phytotoxicity,Setaria faberi (SETFA); 10 g/ha post-emergence,3%
same,Observed phytotoxicity SETFA,"Setaria faberi (SETFA); B2.4.1, 5 g/ha post-emergence",0%
same,ABUTH percentage phytotoxicity,[6]; 0.625 g/ha post-emergence,3%
same,ABUTH percentage phytotoxicity,[6]; 1.25 g/ha post-emergence,38%
same,ABUTH percentage phytotoxicity,[6]; 2.5 g/ha post-emergence,50%
same,ABUTH percentage phytotoxicity,[6]; 5 g/ha post-emergence,58%
same,ABUTH percentage phytotoxicity,[6]; 10 g/ha post-emergence,63%
same,Observed phytotoxicity ABUTH,"[6]; B2.4.6, 0.625 g/ha post-emergence",3%
COc1c(Cl)ccc(-c2nc(C(=O)OCc3ccccc3)c(Cl)c(N)c2F)c1F [B-I],LOLPE percentage phytotoxicity,Lolium perenne (LOLPE); 0.625 g/ha post-emergence,0%
same,LOLPE percentage phytotoxicity,Lolium perenne (LOLPE); 1.25 g/ha post-emergence,0%
same,LOLPE percentage phytotoxicity,Lolium perenne (LOLPE); 2.5 g/ha post-emergence,0%
same,LOLPE percentage phytotoxicity,Lolium perenne (LOLPE); 5 g/ha post-emergence,0%
same,LOLPE percentage phytotoxicity,Lolium perenne (LOLPE); 10 g/ha post-emergence,5%
same,Observed phytotoxicity LOLPE,"Lolium perenne (LOLPE); B2.5.2, 5 g/ha post-emergence",0%
same,IPOHE percentage phytotoxicity,[1]; 0.625 g/ha post-emergence,13%
same,IPOHE percentage phytotoxicity,[1]; 1.25 g/ha post-emergence,33%
same,IPOHE percentage phytotoxicity,[1]; 2.5 g/ha post-emergence,58%
same,IPOHE percentage phytotoxicity,[1]; 5 g/ha post-emergence,55%
same,IPOHE percentage phytotoxicity,[1]; 10 g/ha post-emergence,53%
same,CHEAL percentage phytotoxicity,[2]; 0.625 g/ha post-emergence,63%
same,CHEAL percentage phytotoxicity,[2]; 1.25 g/ha post-emergence,63%
same,CHEAL percentage phytotoxicity,[2]; 2.5 g/ha post-emergence,60%
same,CHEAL percentage phytotoxicity,[2]; 5 g/ha post-emergence,70%
same,CHEAL percentage phytotoxicity,[2]; 10 g/ha post-emergence,75%
same,STEME percentage phytotoxicity,Stellaria media (STEME); 0.625 g/ha post-emergence,50%
same,STEME percentage phytotoxicity,Stellaria media (STEME); 1.25 g/ha post-emergence,58%
same,STEME percentage phytotoxicity,Stellaria media (STEME); 2.5 g/ha post-emergence,75%
same,STEME percentage phytotoxicity,Stellaria media (STEME); 5 g/ha post-emergence,70%
same,STEME percentage phytotoxicity,Stellaria media (STEME); 10 g/ha post-emergence,85%
same,ALOMY percentage phytotoxicity,[3]; 0.625 g/ha post-emergence,0%
same,ALOMY percentage phytotoxicity,[3]; 1.25 g/ha post-emergence,0%
same,ALOMY percentage phytotoxicity,[3]; 2.5 g/ha post-emergence,0%
same,ALOMY percentage phytotoxicity,[3]; 5 g/ha post-emergence,0%
same,ALOMY percentage phytotoxicity,[3]; 10 g/ha post-emergence,3%
same,DIGSA percentage phytotoxicity,[4]; 0.625 g/ha post-emergence,0%
same,DIGSA percentage phytotoxicity,[4]; 1.25 g/ha post-emergence,3%
same,DIGSA percentage phytotoxicity,[4]; 2.5 g/ha post-emergence,5%
same,DIGSA percentage phytotoxicity,[4]; 5 g/ha post-emergence,0%
same,DIGSA percentage phytotoxicity,[4]; 10 g/ha post-emergence,10%
same,Observed phytotoxicity DIGSA,"[4]; B2.5.1, 5 g/ha post-emergence",0%
same,AMARE percentage phytotoxicity,[5]; 0.625 g/ha post-emergence,53%
same,AMARE percentage phytotoxicity,[5]; 1.25 g/ha post-emergence,58%
same,AMARE percentage phytotoxicity,[5]; 2.5 g/ha post-emergence,65%
same,AMARE percentage phytotoxicity,[5]; 5 g/ha post-emergence,58%
same,AMARE percentage phytotoxicity,[5]; 10 g/ha post-emergence,70%
same,SETFA percentage phytotoxicity,Setaria faberi (SETFA); 0.625 g/ha post-emergence,0%
same,SETFA percentage phytotoxicity,Setaria faberi (SETFA); 1.25 g/ha post-emergence,0%
same,SETFA percentage phytotoxicity,Setaria faberi (SETFA); 2.5 g/ha post-emergence,5%
same,SETFA percentage phytotoxicity,Setaria faberi (SETFA); 5 g/ha post-emergence,3%
same,SETFA percentage phytotoxicity,Setaria faberi (SETFA); 10 g/ha post-emergence,20%
same,ABUTH percentage phytotoxicity,[6]; 0.625 g/ha post-emergence,75%
same,ABUTH percentage phytotoxicity,[6]; 1.25 g/ha post-emergence,83%
same,ABUTH percentage phytotoxicity,[6]; 2.5 g/ha post-emergence,80%
same,ABUTH percentage phytotoxicity,[6]; 5 g/ha post-emergence,80%
same,ABUTH percentage phytotoxicity,[6]; 10 g/ha post-emergence,85%
